Patent publication US20110159019A1, “2,4-DIAMINOPYRIMIDINE COMPOUND” (priority 2008, published 2011)
Where two headings read alike, the source gives them in different places.

Tests used:
[1] = target: T1, Full-length human PKCθ (Homo sapiens, UniProt Q04759); assay: Measurement of human PKCθ enzyme inhibition activity (HTRF KinEASE S1 kit); assay type: biochemical
T1 construct: Full-length human PKCθ (Carna Biosciences, final 31 ng/mL); purchased Carna Biosciences
Protocol: Test Method 1: Measurement of Human PKCθ Enzyme Inhibition Activity
The test was carried out using a HTRF® KinEASE™ S1 kit (CIS bio). […] Then, 3 μL of an ATP liquid (final 30 μM) was dispensed therein to carry out an enzyme reaction at room temperature for 1 hour.
Ex represents Compound No. of Examples as described later.

[2] = target: T2, Cytochrome P450 (CYP3A4) (Homo sapiens, UniProt P08684); assay: Measurement of cytochrome P450 (CYP3A4) enzyme inhibition activity in human liver microsome (inhibition tests I and II, midazolam substrate); assay type: in vitro ADME; conditions: for I (%) Remaining Rate I: inhibition test I: 5 μM test compound, 2 μM midazolam, human liver microsome, 37° C. 20 minutes, no preincubation; for II (%) Remaining Rate II: inhibition test II: 5 μM test compound preincubated 30 minutes with human liver microsome and NADPH, then 2 μM midazolam 20 minutes, relative to test I
T2 construct: human liver microsome (0.1 mg protein/mL); from tissue; host or cells: human liver microsomes
Protocol: Test Method 3: Measurement of Cytochrome P450 (CYP3A4) Enzyme Inhibition Activity i) Inhibition Test I (Calculation of Remaining Rate I)
Using a 96-well plate, 2 μM of a substrate (midazolam), 5 μM of a test compound, and human liver microsome (0.1 mg protein/mL) were incubated at 37° C. for 20 minutes in a total amount of 150 μL of a 100 mM phosphate buffer (pH 7.4) containing 0.1 mM EDTA and 1 mM NADPH. Then, the reaction was stopped by adding 130 μl of an aqueous solution containing 80% acetonitrile. Thereafter, the samples were analyzed by LC/MS/MS, and the remaining rates I were calculated using the following equation 1.
Remaining Rate I(%)=Ai,I/Ao,I×100 (Equation 1)
Ai, I=Amount of produced metabolite after reaction in the presence of the test compound in the inhibition test I Ao, I=Amount of produced metabolite after reaction in the absence of the test compound in the inhibition test I ii) Inhibition Test II (Calculation of Remaining Rate II)
Using a 96-well plate, 5 μM of a test compound and human liver microsome (0.1 mg protein/mL) were incubated at 37° C. for 30 minutes in a total amount of 145 μL of a 100 mM phosphate buffer (pH=7.4) containing 0.1 mM EDTA and 1 mM NADPH. Then, 2 μM of midazolam as the substrate was added thereto at a total amount of 150 μL of and incubated at 37° C. for 20 minutes. After the incubation, the reaction was stopped by adding 130 μL of an aqueous solution containing 80% acetonitrile. Thereafter, the samples were analyzed by LC/MS/MS, and the remaining rate II was calculated using the following equation 2.
Remaining Rate II(%)=Ai,II/Ao,II/(Ai,I/Ao,I)×100 (Equation 2)
Ai, II=Amount of produced metabolite after reaction in the presence of the test compound in the inhibition test II […]=Amount of produced metabolite after reaction in the absence of the test compound in the inhibition test II […]
Ex represents No. of the Example Compounds as described below.

[3] = full-length human PKCθ, ATP 30 μM, HTRF, read-out: IC50 (nM), human PKCθ enzyme inhibition

T1 sequence (Q04759 whole entry): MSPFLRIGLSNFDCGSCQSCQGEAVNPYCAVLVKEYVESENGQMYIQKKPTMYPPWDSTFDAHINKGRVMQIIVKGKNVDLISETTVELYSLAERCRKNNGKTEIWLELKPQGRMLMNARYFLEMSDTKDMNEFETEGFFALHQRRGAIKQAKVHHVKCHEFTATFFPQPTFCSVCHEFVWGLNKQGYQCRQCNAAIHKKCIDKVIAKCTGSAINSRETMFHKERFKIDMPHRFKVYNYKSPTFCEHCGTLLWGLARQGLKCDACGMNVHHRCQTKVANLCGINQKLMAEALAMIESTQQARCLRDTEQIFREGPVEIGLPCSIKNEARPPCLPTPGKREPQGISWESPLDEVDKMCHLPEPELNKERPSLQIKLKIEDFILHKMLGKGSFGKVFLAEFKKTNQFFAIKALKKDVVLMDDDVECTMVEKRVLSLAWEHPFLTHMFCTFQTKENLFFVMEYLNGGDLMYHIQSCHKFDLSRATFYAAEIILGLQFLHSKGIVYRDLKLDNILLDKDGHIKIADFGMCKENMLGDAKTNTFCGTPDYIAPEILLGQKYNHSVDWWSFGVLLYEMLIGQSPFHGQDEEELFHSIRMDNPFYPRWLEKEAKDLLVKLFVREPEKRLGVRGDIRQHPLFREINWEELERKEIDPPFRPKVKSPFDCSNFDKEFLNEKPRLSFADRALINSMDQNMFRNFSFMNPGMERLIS
T2 sequence (P08684 whole entry): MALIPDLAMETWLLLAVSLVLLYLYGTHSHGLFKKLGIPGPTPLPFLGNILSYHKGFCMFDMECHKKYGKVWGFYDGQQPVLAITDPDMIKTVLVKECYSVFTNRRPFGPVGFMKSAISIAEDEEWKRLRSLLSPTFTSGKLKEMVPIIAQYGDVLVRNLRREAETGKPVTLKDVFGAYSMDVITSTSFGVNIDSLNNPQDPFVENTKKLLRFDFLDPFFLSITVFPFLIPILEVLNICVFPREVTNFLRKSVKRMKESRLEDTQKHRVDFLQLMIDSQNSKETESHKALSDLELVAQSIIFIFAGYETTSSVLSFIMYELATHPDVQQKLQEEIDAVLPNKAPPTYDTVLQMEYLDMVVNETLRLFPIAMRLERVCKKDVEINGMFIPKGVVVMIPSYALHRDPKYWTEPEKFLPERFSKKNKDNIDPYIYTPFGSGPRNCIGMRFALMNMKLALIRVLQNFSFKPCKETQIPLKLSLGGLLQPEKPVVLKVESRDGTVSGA

| Structure (SMILES) | IC50 [1, 3] | I (%) Remaining Rate I [2] | II (%) Remaining Rate II [2] | IC50 [1] |
| --- | --- | --- | --- | --- |
| N#Cc1cnc(NCc2ccccc2OC(F)(F)F)nc1NC[C@]12CC3C[C@H](C1)[C@H](N[C@H]1CC[C@H](O)CC1)[C@@H](C3)C2 (relative stereo) [Example 41, rel-4-[({(1R,3S,4R,5R)-4-[(trans-4-hydroxycyclohexyl)amino]adamantan-1-yl}methyl)amino]-2-{[2-(trifluoromethoxy)benzyl]amino}pyrimidine-5-carbonitrile] | 14 nM | 80% | 102% | – |
| COc1ccccc1CNc1ncc(C#N)c(NC[C@]23CC4C[C@H](C2)[C@@H](NCC[C@H](O)CO)[C@@H](C4)C3)n1 (relative stereo) [Example 195] | 3.3 nM | 88% | 82% | – |
| CSc1ccccc1CNc1ncc(C#N)c(NC[C@]23CC4C[C@H](C2)[C@@H](NCC[C@H](O)CO)[C@@H](C4)C3)n1 (relative stereo) [Example 200] | 0.28 nM | 95% | 85% | – |
| CSc1ncccc1CNc1ncc(C#N)c(NC[C@]23CC4C[C@H](C2)[C@@H](NC[C@H]2CC[C@H](O)CC2)[C@@H](C4)C3)n1 (relative stereo) [Example 344] | 0.48 nM | 89% | 84% | – |
| C[C@]1(O)CC[C@H](CN[C@@H]2[C@@H]3CC4C[C@H]2C[C@@](CNc2nc(NCc5ccccc5OC(F)F)ncc2C#N)(C4)C3)CC1 (relative stereo) [Example 372] | 1.22 nM | 78% | 84% | – |
| COc1ccccc1CNc1ncc(C#N)c(NC[C@]23CC4C[C@H](C2)[C@@H](N(C)CCCCO)[C@@H](C4)C3)n1 [Example 107] | 5.4 nM | 77% | 84% | – |
| CN([C@H]1CC[C@H](O)CC1)[C@@H]1[C@@H]2CC3C[C@H]1C[C@@](CNc1nc(NCc4ccccc4OC(F)(F)F)ncc1C#N)(C3)C2 [Example 115] | 3.5 nM | 75% | 90% | – |
| N#Cc1cnc(NCc2ccccc2Cl)nc1NC[C@]12CC3C[C@H](C1)[C@@H](NCC1CCN(CCF)CC1)[C@@H](C3)C2 [Example 219] | – | 76% | 94% | 0.4 nM |
| N#Cc1cnc(NCc2ccccc2OC(F)(F)F)nc1NC[C@]12CC3C[C@H](C1)[C@@H](N[C@H]1CC[C@@H](N)CC1)[C@@H](C3)C2 [Example 303] | 0.065 nM | 75% | 88% | – |
| N#Cc1cnc(NCc2ccccc2OC(F)(F)F)nc1NCCC(=O)N1CCCNCC1 [Example 387] | 77 nM | – | – | – |

Second part, led by results:

| IC50 [1, 3] | I (%) Remaining Rate I [2] | II (%) Remaining Rate II [2] | Structure (SMILES) | IC50 [1] |
| --- | --- | --- | --- | --- |
| 0.44 nM | 76% | 99% | CSc1ccccc1CNc1ncc(C#N)c(NC[C@]23CC4C[C@H](C2)[C@@H](N[C@H]2CC[C@H](O)CC2)[C@@H](C4)C3)n1 (relative stereo) [Example 43, rel-4-[({(1R,3S,4R,5R)-4-[(trans-4-hydroxycyclohexyl)amino]adamantan-1-yl]methyl)amino}-2-{[2-(methylsulfanyl)benzyl]amino}pyrimidine-5-carbonitrile] | – |
| 3.9 nM | 86% | 87% | COc1ccccc1CNc1ncc(C#N)c(NC[C@]23CC4C[C@H](C2)[C@@H](N2CC(CO)(CO)C2)[C@@H](C4)C3)n1 (relative stereo) [Example 196] | – |
| 1.4 nM | 91% | 83% | N#Cc1cnc(NCc2ccccc2Cl)nc1NC[C@]12CC3C[C@H](C1)[C@@H](NC[C@H]1CC[C@H](O)CC1)[C@@H](C3)C2 (relative stereo) [Example 340] | – |
| 0.65 nM | 84% | 89% | N#Cc1cnc(NCc2ccccc2Cl)nc1NC[C@]12CC3C[C@H](C1)[C@@H](NC[C@H]1CC[C@@H](O)CC1)[C@@H](C3)C2 (relative stereo) [Example 401] | – |
| 0.36 nM | 83% | 89% | N#Cc1cnc(NCc2ccccc2Cl)nc1NC[C@]12CC3C[C@H](C1)[C@@H](NC1CCNCC1)[C@@H](C3)C2 [Example 169] | – |
| 0.83 nM | – | – | N#Cc1cnc(NCc2ccccc2Cl)nc1NC[C@]12CC3C[C@H](C1)[C@@H](NC1CCN(C(=O)CO)CC1)[C@@H](C3)C2 [Example 205] | – |
| 0.96 nM | – | – | N#Cc1cnc(NCc2ccccc2Cl)nc1NC[C@]12CC3C[C@H](C1)[C@@H](N1CC(O)C1)[C@@H](C3)C2 [Example 211] | – |
| 4 nM | – | – | N#Cc1cnc(NCc2ccccc2Cl)nc1NC[C@]12CC3C[C@H](C1)C(N1CCNCC1)[C@@H](C3)C2 (stereo partly shown) [Example 319] | – |
| 0.25 nM | 90% | 92% | N#Cc1cnc(NCc2ccccc2Cl)nc1NC[C@]12CC3C[C@H](C1)[C@@H](NCC1CCNCC1)[C@@H](C3)C2 [Example 321] | – |
